Laboratory results reported in PubChem BioAssay (NCI).
“And” between values parts separate entries of the source, which are not always exact repeats. Identical values can stand only once.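 How tested: cells in 96-well plates exposed to compound for 48 hours at five concentrations. GI50 = concentration required for 50% inhibition of growth. TGI: concentration producing complete growth inhibition.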

Tests used:
Assay in all cases: DTP human tumour cell line panel, 48 h
ACHN renal = system: ACHN renal
BT-549 breast = system: BT-549 breast
COLO 205 colon = system: COLO 205 colon
HCT-15 colon = system: HCT-15 colon
MCF7 breast = system: MCF7 breast
NCI-H226 lung = system: NCI-H226 lung
NCI-H460 lung = system: NCI-H460 lung
OVCAR-4 ovarian = system: OVCAR-4 ovarian
SF-268 CNS = system: SF-268 CNS
TK-10 renal = system: TK-10 renal

Compound | GI50 (ACHN renal) [µM] | TGI (ACHN renal) | GI50 (BT-549 breast) [µM] | TGI (BT-549 breast) | GI50 (COLO 205 colon) [µM] | TGI (COLO 205 colon) | GI50 (HCT-15 colon) [µM] | TGI (HCT-15 colon) | GI50 (MCF7 breast) [µM] | TGI (MCF7 breast) | GI50 (NCI-H226 lung) [µM] | TGI (NCI-H226 lung) | GI50 (NCI-H460 lung) [µM] | TGI (NCI-H460 lung) | GI50 (OVCAR-4 ovarian) [µM] | TGI (OVCAR-4 ovarian) | GI50 (SF-268 CNS) | TGI (SF-268 CNS) | GI50 (TK-10 renal) [µM] | TGI (TK-10 renal)
Cc1cc(O)cc(C)c1/C=C/c1cncc(C(=O)OC(C)(C)C)c1 | 12.7 | > 25 µM | > 20.8 | > 25 µM | > 25 | > 25 µM | 11.5 | > 25 µM | 11.8 | > 25 µM | > 25 | > 25 µM | 13.5 | > 25 µM | 12.2 | > 25 µM | 20.7 µM | > 25 µM | > 23.5 | > 25 µM
CN(C)c1ccc(C(=C2C=CC(=[N+](C)C)C=C2)c2ccccc2Cl)cc1 | 0.4 | 1.61 µM | 0.373 | 2.56 µM | 0.17 | 0.312 µM | 0.717 | 4.96 µM | 0.237 | 0.899 µM | 0.43 | 2 µM | 0.245 | 0.804 µM | 0.36 | 1.6 µM | 0.379 µM | 1.41 µM | 0.345 | 1.41 µM
COc1ccc(C#CC2=C(c3cc(OC)c(OC)c(OC)c3)C(=O)OC2)cc1 | 5.89 | 25.3 µM | 2.13 | 15.7 µM | 4.15 | > 50 µM | 1.99 | > 50 µM | 0.948 | > 50 µM | 7.88 | 27.1 µM | 6.65 | > 50 µM | 1.51 | > 50 µM | 2.23 µM | > 50 µM | 1.77 | > 50 µM
CCN(CC)c1ccc(/C=C/C=C(/C#N)C(N)=S)cc1 | 24 | > 100 µM | 2.73 | 16 µM | 7.13 | > 100 µM | 2.59 | > 100 µM | 14.5 | > 100 µM | 5.27 | 30.9 µM | 18.1 | > 100 µM | 6.27 | > 100 µM | 30.2 µM | > 100 µM | 28.7 | > 100 µM
O=c1cc(O)c2c(O)cc(O)cc2o1 | – | > 100 µM | – | > 100 µM | – | > 100 µM | – | > 100 µM | – | > 100 µM | – | > 100 µM | – | > 100 µM | – | > 100 µM | – | > 100 µM | – | > 100 µM
N#C/C(=C\c1cccc2cnccc12)N1N=NC2C=CC=CC21 (centres undefined) | 2.5 | > 100 µM | 2.97 | > 100 µM | 3.48 | > 100 µM | 1.74 | > 100 µM | 0.557 | > 100 µM | 3.95 | > 100 µM | 3.98 | 32.7 µM | 2.92 | > 100 µM | 3.06 µM | > 100 µM | 3.98 | 26.3 µM
CC12CCC(O)CC1=CCC1C2CCC2(C)C(c3cccnc3)=CCC12 (centres undefined) | > 100 | > 100 µM | > 100 | > 100 µM | > 100 | > 100 µM | > 100 | > 100 µM | > 100 | > 100 µM | > 100 | > 100 µM | > 100 | > 100 µM | > 100 | > 100 µM | 95.2 µM | > 100 µM | > 100 | > 100 µM
Cc1ccc(C(=O)N=Nc2c(O)[nH]c3ccc(Cl)cc23)cc1 | > 50 | > 50 µM | 25 | > 50 µM | 19 | > 50 µM | 18 | > 50 µM | 13.5 | > 50 µM | 7.4 | 24.6 µM | 15.1 | > 50 µM | 6.82 | 18 µM | 25.4 µM | > 50 µM | 43.2 | > 50 µM
COc1ccc(-c2nnc(Nc3nc(O)c(C4=c5cc(F)ccc5=NC4=O)s3)o2)cc1 | 35.3 | > 100 µM | 36.5 | > 100 µM | 68.2 | > 100 µM | 44.7 | > 100 µM | 34.5 | > 100 µM | 46.3 | > 100 µM | 34.2 | > 100 µM | 39.7 | > 100 µM | 67.7 µM | > 100 µM | 56.3 | > 100 µM
CC(OC(=O)N(N(CCCl)S(C)(=O)=O)S(C)(=O)=O)c1ccc([N+](=O)[O-])cc1 (centres undefined) | > 100 | > 100 µM | 33.8 | > 100 µM | 77.6 | > 100 µM | > 100 | > 100 µM | 58 | > 100 µM | 29.1 | 79.3 µM | > 78.7 | > 100 µM | 73.5 | > 100 µM | > 100 µM | > 100 µM | > 66.2 | > 100 µM
COC(=O)/C(=C\c1c(-c2ccccc2)[nH]c2ccccc12)S(C)(=O)=O | 9.18 | 23.8 µM | 4.29 | 78.8 µM | 4.39 | 18.5 µM | 2.35 | 12.1 µM | 2.92 | 18.2 µM | 4.99 | 64.5 µM | 3.54 | 14.2 µM | 6.23 | > 100 µM | 4.32 µM | 18.3 µM | 7.71 | > 100 µM
Nc1nc(-c2cc(-c3cccc4ccccc34)nc(N)n2)cc(-c2cccc3ccccc23)n1 | – | > 100 µM | – | > 100 µM | – | > 100 µM | – | > 100 µM | – | > 100 µM | – | > 100 µM | – | > 100 µM | – | > 100 µM | – | > 100 µM | – | > 100 µM
CCN(CC)CCCNc1[nH]ncc2c(C)c3nc4ccccc4c3cc12 | – | 11.6 µM and 9.15 µM | 2.08 | 2.75 µM and 5.17 µM | 0.49 | 1.75 µM and 3.23 µM | 6.54 | 21.4 µM and 36.5 µM | 0.219 | 0.756 µM and 5.9 µM | 0.566 | 2.5 µM and 2.09 µM | 0.22 | 1.36 µM and 2.69 µM | 0.397 | 1.75 µM and 2.42 µM | 0.493 µM and 1.09 µM | 3.16 µM and 7.67 µM | 2.83 | 12.4 µM and 18.1 µM
Cc1ncc(-c2ccnc(Nc3ccc(S(C)(=O)=O)cc3)n2)n1C(C)C | 0.603 | > 9.54 µM | 0.925 | 7.22 µM | 0.532 | 2.37 µM | 1.41 | > 8.6 µM | 0.523 | > 10 µM | 0.902 | > 8.47 µM | 0.931 | > 5.33 µM | 1.87 | > 8.73 µM | 1.67 µM | 6.62 µM | 1.37 | > 10 µM
